Where “and” joins values, the source holds several entries; their conditions need not be identical. Equal values may be shown once.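 Grown in 96-well plates, cells were treated for 48 hours with each compound at five concentrations. Insufficient inhibition: endpoint recorded as highest concentration tested. The concentration for 50% growth inhibition is given as GI50. TGI: total growth inhibition.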
The molecules below were run on OVCAR-8 ovarian (assay: DTP human tumour cell line panel, 48 h).

Compound	TGI	GI50
CNC(=O)N(C)N=NCCCl	> 100 µM	–
CCN1CCN(C(c2ccc(C(F)(F)F)cc2)c2ccc3cccnc3c2O)CC1 (configuration not stated)	13.5 µM	1.85 µM
COc1ccc(C(C)=O)cc1N1C(=O)C2C(C1=O)C1(c3ccccc3)C(=O)C2(c2ccccc2)C(c2ccc(C)cc2)=C1c1ccc(C)cc1 (configuration not stated)	> 100 µM	> 100 µM
O=C1c2cccc(NCCCNCCO)c2C(=O)c2cccc(NCCCNCCO)c21	4.57 µM and 5.66 µM	–
NC(=Nc1c([N+](=O)[O-])cnc2ccccc12)N1CCOCC1	> 100 µM	–
CCN(CC)c1ccc2c(c1)OC(N)=C(C#N)C2c1cc(OC)c2c(c1)OCO2 (configuration not stated)	3.53 µM	0.0395 µM
N#CC(=C1C=CC(=NO)C=C1)c1ccccc1	12.3 µM	2.71 µM
CC(C)=CCNc1ncnc2c1ncn2C1OC(CO)C(O)C1O (configuration not stated)	3.34 µM	0.496 µM
CCC(C)n1ncn(-c2ccc(N3CCN(c4ccc(OCC5COC(Cn6cncn6)(c6ccc(Cl)cc6Cl)O5)cc4)CC3)cc2)c1=O (configuration not stated)	> 100 µM	20.2 µM
CC(C)CCN1c2nc(Nc3cc(F)c(O)c(F)c3)ncc2N(C)C(=O)C1C (configuration not stated)	> 100 µM	17.6 µM
O=C(CNc1ccc(Cl)cc1)Nc1ccc(-c2nc3ccccc3s2)cc1	17.8 µM	6.15 µM
CCCCCCCCCCCCOC1C(C(COC2OC(C3COC(C)(C)O3)C3OC(C)(C)OC23)NC(=O)Nc2ccc(C(=O)O)cc2)OC2OC(C)(C)OC21 (configuration not stated)	12 µM	3.13 µM
CCN(CC)CCC(CNc1ccnc2cc(Cl)ccc12)c1ccc(OC)cc1 (configuration not stated)	27.2 µM and 19.3 µM	5.76 µM and 4.78 µM
COc1ccc(/C=C(/C(=O)N2CCN(c3ccccc3)CC2)c2cc(OC)c(OC)c(OC)c2)cc1O	> 100 µM	0.419 µM

The molecules below were run on SW-620 colon (assay: DTP human tumour cell line panel, 48 h).

Compound	TGI	GI50
COc1cc(C#CC(=O)OC/C=C/c2ccc3c(c2)OCO3)cc(OC)c1OC	80.6 µM	–
O/N=C/C1C(OCc2ccccc2)C(OCc2ccccc2)C(OCc2ccccc2)CN1Cc1ccccc1 (configuration not stated)	> 100 µM	–
O=C1NC(=O)C(c2cnc3ccccn23)=C1c1cn2c3c(cc(F)cc13)CN(C(=O)N1CCCCC1)CC2	45.8 µM	14.2 µM
Clc1nc2ccccc2nc1CI	6.87 µM	2.57 µM
Cn1nc(N)c2cc([C@@H]3Nc4ccc5[nH]ncc5c4[C@H]4C5CCC(C5)[C@@H]34)ccc21 (some centres not stated)	28 µM	0.391 µM
O=C(O)C1C2C=CC(O2)C1C(=O)NCc1ccccn1 (configuration not stated)	> 100 µM	–
O=C(OC(CNc1cc(=O)n(Cc2ccccc2)c(=O)n1Cc1ccccc1)CN1CCCC1)c1ccccc1 (configuration not stated)	> 100 µM	> 100 µM
CCN(CC)CCCC(CNc1ccnc2cc(Cl)ccc12)c1ccc(Cl)cc1 (configuration not stated)	3.02 µM and 3.35 µM	1.43 µM and 1.55 µM
CCOC(=O)CCCn1c(SC)nc2[nH]cc(-c3ccccc3)c2c1=O	78.6 µM	20.7 µM
[Cl][Hg][c]1cc(Br)cc(Br)c1	3.52 µM	1.74 µM
CCN(CC)CCOc1ccc(-c2nc3cc(Cl)ccc3s2)cc1	2.93 µM	1.53 µM
C=C1C(=O)O[C@@H]2C[C@@H]1CC/C(C)=C/CC/C(C)=C/CC[C@@]2(C)O	52.5 µM	25.3 µM
CNC(=O)N(C)N=NCCCl	> 100 µM	–
CCN1CCN(C(c2ccc(C(F)(F)F)cc2)c2ccc3cccnc3c2O)CC1 (configuration not stated)	19.9 µM	4.42 µM
COc1ccc(C(C)=O)cc1N1C(=O)C2C(C1=O)C1(c3ccccc3)C(=O)C2(c2ccccc2)C(c2ccc(C)cc2)=C1c1ccc(C)cc1 (configuration not stated)	> 100 µM	> 100 µM
O=C1c2cccc(NCCCNCCO)c2C(=O)c2cccc(NCCCNCCO)c21	3.41 µM and 7.57 µM	–
NC(=Nc1c([N+](=O)[O-])cnc2ccccc12)N1CCOCC1	> 100 µM	–
CCN(CC)c1ccc2c(c1)OC(N)=C(C#N)C2c1cc(OC)c2c(c1)OCO2 (configuration not stated)	> 48.9 µM	0.0354 µM
N#CC(=C1C=CC(=NO)C=C1)c1ccccc1	2.36 µM	0.473 µM
CC(C)=CCNc1ncnc2c1ncn2C1OC(CO)C(O)C1O (configuration not stated)	24.7 µM	0.725 µM
CCC(C)n1ncn(-c2ccc(N3CCN(c4ccc(OCC5COC(Cn6cncn6)(c6ccc(Cl)cc6Cl)O5)cc4)CC3)cc2)c1=O (configuration not stated)	> 100 µM	> 100 µM
CC(C)CCN1c2nc(Nc3cc(F)c(O)c(F)c3)ncc2N(C)C(=O)C1C (configuration not stated)	27.4 µM	4.09 µM
O=C(CNc1ccc(Cl)cc1)Nc1ccc(-c2nc3ccccc3s2)cc1	4.73 µM	2.15 µM
CCCCCCCCCCCCOC1C(C(COC2OC(C3COC(C)(C)O3)C3OC(C)(C)OC23)NC(=O)Nc2ccc(C(=O)O)cc2)OC2OC(C)(C)OC21 (configuration not stated)	11 µM	3.26 µM
CCN(CC)CCC(CNc1ccnc2cc(Cl)ccc12)c1ccc(OC)cc1 (configuration not stated)	22.6 µM and 21.7 µM	8.16 µM and 4.1 µM
COc1ccc(/C=C(/C(=O)N2CCN(c3ccccc3)CC2)c2cc(OC)c(OC)c(OC)c2)cc1O	> 100 µM	0.468 µM

Each molecule was assayed on SK-MEL-2 melanoma (assay: DTP human tumour cell line panel, 48 h).

Compound	TGI	GI50
COc1cc(C#CC(=O)OC/C=C/c2ccc3c(c2)OCO3)cc(OC)c1OC	25.4 µM	–
O/N=C/C1C(OCc2ccccc2)C(OCc2ccccc2)C(OCc2ccccc2)CN1Cc1ccccc1 (configuration not stated)	53.9 µM	–
O=C1NC(=O)C(c2cnc3ccccn23)=C1c1cn2c3c(cc(F)cc13)CN(C(=O)N1CCCCC1)CC2	27.2 µM	8.8 µM
Clc1nc2ccccc2nc1CI	19.4 µM	5.43 µM
Cn1nc(N)c2cc([C@@H]3Nc4ccc5[nH]ncc5c4[C@H]4C5CCC(C5)[C@@H]34)ccc21 (some centres not stated)	39.4 µM	11.1 µM
O=C(O)C1C2C=CC(O2)C1C(=O)NCc1ccccn1 (configuration not stated)	> 100 µM	–
O=C(OC(CNc1cc(=O)n(Cc2ccccc2)c(=O)n1Cc1ccccc1)CN1CCCC1)c1ccccc1 (configuration not stated)	> 100 µM	> 100 µM
CCN(CC)CCCC(CNc1ccnc2cc(Cl)ccc12)c1ccc(Cl)cc1 (configuration not stated)	4.07 µM and 3.09 µM	2.1 µM and 1.59 µM
CCOC(=O)CCCn1c(SC)nc2[nH]cc(-c3ccccc3)c2c1=O	45.8 µM	21.6 µM
[Cl][Hg][c]1cc(Br)cc(Br)c1	5.66 µM	1.97 µM
CCN(CC)CCOc1ccc(-c2nc3cc(Cl)ccc3s2)cc1	3.59 µM	1.89 µM
C=C1C(=O)O[C@@H]2C[C@@H]1CC/C(C)=C/CC/C(C)=C/CC[C@@]2(C)O	12.5 µM	2.69 µM
CNC(=O)N(C)N=NCCCl	> 100 µM	–
CCN1CCN(C(c2ccc(C(F)(F)F)cc2)c2ccc3cccnc3c2O)CC1 (configuration not stated)	17.6 µM	4.53 µM
COc1ccc(C(C)=O)cc1N1C(=O)C2C(C1=O)C1(c3ccccc3)C(=O)C2(c2ccccc2)C(c2ccc(C)cc2)=C1c1ccc(C)cc1 (configuration not stated)	> 100 µM	> 100 µM
O=C1c2cccc(NCCCNCCO)c2C(=O)c2cccc(NCCCNCCO)c21	3.47 µM and 3.42 µM	–
NC(=Nc1c([N+](=O)[O-])cnc2ccccc12)N1CCOCC1	> 100 µM	–
CCN(CC)c1ccc2c(c1)OC(N)=C(C#N)C2c1cc(OC)c2c(c1)OCO2 (configuration not stated)	13.8 µM	0.0476 µM
N#CC(=C1C=CC(=NO)C=C1)c1ccccc1	6.77 µM	2.14 µM
CC(C)=CCNc1ncnc2c1ncn2C1OC(CO)C(O)C1O (configuration not stated)	334 µM	16.2 µM
CCC(C)n1ncn(-c2ccc(N3CCN(c4ccc(OCC5COC(Cn6cncn6)(c6ccc(Cl)cc6Cl)O5)cc4)CC3)cc2)c1=O (configuration not stated)	68.9 µM	13.8 µM
CC(C)CCN1c2nc(Nc3cc(F)c(O)c(F)c3)ncc2N(C)C(=O)C1C (configuration not stated)	15.2 µM	3.14 µM
O=C(CNc1ccc(Cl)cc1)Nc1ccc(-c2nc3ccccc3s2)cc1	30.8 µM	8.96 µM
CCCCCCCCCCCCOC1C(C(COC2OC(C3COC(C)(C)O3)C3OC(C)(C)OC23)NC(=O)Nc2ccc(C(=O)O)cc2)OC2OC(C)(C)OC21 (configuration not stated)	4.82 µM	2.23 µM
CCN(CC)CCC(CNc1ccnc2cc(Cl)ccc12)c1ccc(OC)cc1 (configuration not stated)	33.1 µM and 4.07 µM	15.4 µM and 2.02 µM
COc1ccc(/C=C(/C(=O)N2CCN(c3ccccc3)CC2)c2cc(OC)c(OC)c(OC)c2)cc1O	86.5 µM	0.387 µM
